Where two headings read alike, the source gives them in different places. Ends that are not written are not given here.
Key:
RBL-2H3 cells = assay type: cell-based, rat; settings: for degranulation activity of mutant compared with Protopolybia-MPIII, in words: mutants of Protopolybia-MPIII, Table 3; for Degranulation at 80 μg/mL, RBL-2H3 / degranulation of RBL-2H3 / mast cells, in words: RBL-2H3 cells; for Degranulation at 80 μg/mL, RBL-2H3: 80 μg/mL peptide, 15 min at 37 °C, % of total β-hexosaminidase (0.1% Triton X-100 lysis)
Description: (§1) RBL-2H3 cells (rat mucosal-type mast cell line) and P815 cells (mouse mast cell tumor cell line) were obtained from the BeNa Culture Collection (Xinyang, China). RBL-2H3 cells were cultured in DMEM (Gibco, Wuhan, China) supplemented with 15% FBS (Gibco), and P815 cells were maintained in RPMI 1640 basic medium supplemented with 10% FBS and antibiotics (100 mg/L streptomycin and 1 × 10^5 U/L penicillin) in a humidified atmosphere (5% CO2, 37 °C).
(§2) Degranulation was analyzed by measuring the release of the granule marker N-acetyl-D-glucosaminidase (β-hexosaminidase), which colocalizes with histamine, as described in [24]. For this, 2 × 10^5 P815 cells/mL or 1.5 × 10^5 RBL-2H3 cells/mL were seeded in 96-well cell culture plates. Twelve hours later, the cells were incubated with various concentrations of mastoparans dissolved in 100 μL HEPES buffer (137 mM NaCl, 2.7 mM KCl, 1 mM MgCl2, 1.8 mM CaCl2, 20 mM HEPES, 1 mg/mL BSA, and 1 mg/mL glucose, pH 7.4) for 15 min at 37 °C and 5% CO2. Then, the reactions were quenched by the addition of 0.15 mL of ice-cold HEPES buffer. After centrifugation, the supernatants were sampled for the β-hexosaminidase assay. Briefly, 50 μL samples of the cell culture supernatants and 50 μL of the substrate, 5 mM p-nitrophenyl-N-acetyl-b-D-glucosaminide (Sigma) in 0.2 M citrate, pH 4.5, were incubated in 96-well plates at 37 °C and 5% CO2 for 16–18 h to yield the chromophore p-nitrophenol, and the reactions were stopped by the addition of 100 μL of 0.2 M glycine solution, pH 10.7. The absorbance of the colored product was assessed at 405 nm using a microtiter plate reader. The values for β-hexosaminidase released in the medium are expressed as the percentage of total β-hexosaminidase, which was measured in the cells after lysis in 0.1% Triton X-100. The experiment was repeated three times, and the results represent the mean and standard deviation (SD) of quadruplicate tests. The percent degranulation was calculated according to the following equation:Degranulation Rate (%) = 100% × (Amastoparans − AHEPES)/(ATriton X-100 − AHEPES).
Statistical analysis was performed with GraphPad Prism software. The curve of mast cell degranulation induced by wasp mastoparans was generated in SigmaPlot 12.5 software, and the EC50 was calculated according to the following equation (Four-Parameter Logistic Curve): y = min + (max − min)/(1 + (x/EC50) […] Hillslope).

P815 cells = assay: Mast cell degranulation activity (β-hexosaminidase release) in P815 cells; assay type: cell-based, mouse; settings: P815 cells, 80 μg/mL peptide, 15 min at 37 °C, % of total β-hexosaminidase (0.1% Triton X-100 lysis)
Description: as §1, §2

Substance | EC50 (RBL-2H3 cells; pH 7.4) | EC50 (RBL-2H3 cells) | also measured
INWKKIKSIIKAAMN-NH2 [MP-V1] | 130 ± 46.6 µM | – | –
INWKKIKSLIKAAMS-NH2 [MP-V2] | 88.9 ± 61.3 µM | – | –
INWKKMAATALKMI-NH2 [Parapolybia-MP] | 89.4 ± 19.9 µM | – | –
INWLKLGKAIIDAL-NH2 [Agelaia-MPI] | 5.25 ± 0.87 µM | – | –
INWLKLGKAVIAAL-NH2 [Protopolybia-MP III-3] | – | 15.3 ± 3.53 µM | –
INWLKLGKAVIAIL-NH2 [Protopolybia-MP III-10] | – | 8.39 ± 0.93 µM | –
INWLKLGKAVIDAL-NH2 [Protopolybia-MPIII] | 22.5 ± 2.96 µM | 21.7 ± 3.44 µM | –
INWLKLGKAVIDIL-NH2 [Protopolybia-MP III-4] | – | 28.1 ± 3.71 µM | –
INWLKLGKAVSAAL-NH2 [Protopolybia-MP III-8] | – | 140 ± 7.06 µM | –
INWLKLGKAVSAIL-NH2 [Protopolybia-MP III-11] | – | > 325 µM | degranulation activity of mutant compared with Protopolybia-MPIII, in words (RBL-2H3 cells): significantly decreased
INWLKLGKAVSDAL-NH2 [Protopolybia-MP III-2] | – | 193 ± 28.8 µM | –
INWLKLGKAVSDIL-NH2 [Protopolybia-MP III-9] | – | 49.6 ± 1.73 µM | –
INWLKLGKKILGAI-NH2 [Pm-R1] | 22.9 ± 4.77 µM | – | –
INWLKLGKKILGAL-NH2 [PDD-B] | 21.7 ± 3.78 µM | – | –
INWLKLGKKMMSAL-NH2 [MP] | 66.8 ± 30.7 µM | – | –
INWLKLGKKVIAAL-NH2 [Protopolybia-MP III-6] | – | 69.1 ± 12.3 µM | –
INWLKLGKKVIAIL-NH2 [Protopolybia-MP III-12] | – | 47.7 ± 14.1 µM | –

Substance | EC50 (RBL-2H3 cells; pH 7.4) | EC50 (RBL-2H3 cells) | also measured
INWLKLGKKVIDAL-NH2 [Protopolybia-MP III-1] | – | 98.4 ± 8.43 µM | –
INWLKLGKKVIDIL-NH2 [Protopolybia-MP III-7] | – | 25.2 ± 1.56 µM | –
INWLKLGKKVSAAL-NH2 [Protopolybia-MP III-14] | – | > 325 µM | EC50 (μg/mL), Protopolybia-MPIII and mutations (RBL-2H3 cells): >500 µg/mL; degranulation activity of mutant compared with Protopolybia-MPIII, in words (RBL-2H3 cells): almost lost
INWLKLGKKVSAIL-NH2 [Protopolybia-MPI] | 117 ± 38.3 µM | – | –
INWLKLGKKVSDAL-NH2 [Protopolybia-MP III-5] | – | > 325 µM | EC50 (μg/mL), Protopolybia-MPIII and mutations (RBL-2H3 cells): >500 µg/mL; degranulation activity of mutant compared with Protopolybia-MPIII, in words (RBL-2H3 cells): almost lost
INWLKLGKKVSDIL-NH2 [Protopolybia-MP III-13] | – | 145 ± 24.4 µM | –
INWLKLGKMVIDAL-NH2 [Polybia-MPII] | 6.79 ± 0.4 µM | – | –
INWLKLGKQILGAL-NH2 [Pm-R3] | 7.6 ± 0.76 µM | – | –
KDLHTVVSAILQAL-NH2 [OdVP3] | > 200 µM | – | Degranulation at 80 μg/mL, RBL-2H3 (RBL-2H3 cells): 5%; EC50 (μg/mL), RBL-2H3 (RBL-2H3 cells; pH 7.4): >300 µg/mL; Degranulation at 80 μg/mL, P815 (P815 cells): <20%
LKLLGIVKKVLGAI-NH2 [EMP-EM2] | 72.8 ± 19.8 µM | – | –
LKLMGIVKKVLGAL-NH2 [MP-EM1] | 197 ± 164 µM | – | –
LNFKALAALAKKIL-NH2 [Pm-R2] | 94.8 ± 73.5 µM | – | –
LNLKGIFKKVASLLT-OH [Eumenitin] | – | – | degranulation of RBL-2H3 / mast cells, in words (RBL-2H3 cells): hardly induced mast cell degranulation; Degranulation at 80 μg/mL, RBL-2H3 (RBL-2H3 cells): 8%; EC50 (μg/mL), RBL-2H3 (RBL-2H3 cells; pH 7.4): >300 µg/mL; Degranulation at 80 μg/mL, P815 (P815 cells): <20%
LNLKGLFKKVASLLT-OH [Eumenitin-F] | – | – | degranulation of RBL-2H3 / mast cells, in words (RBL-2H3 cells): hardly induced mast cell degranulation; Degranulation at 80 μg/mL, RBL-2H3 (RBL-2H3 cells): 2%; EC50 (μg/mL), RBL-2H3 (RBL-2H3 cells; pH 7.4): >300 µg/mL; Degranulation at 80 μg/mL, P815 (P815 cells): <20%
LNLKGLIKKVASLLN-OH [Eumenitin-R] | – | – | degranulation of RBL-2H3 / mast cells, in words (RBL-2H3 cells): hardly induced mast cell degranulation; Degranulation at 80 μg/mL, RBL-2H3 (RBL-2H3 cells): 14%; EC50 (μg/mL), RBL-2H3 (RBL-2H3 cells; pH 7.4): >300 µg/mL; Degranulation at 80 μg/mL, P815 (P815 cells): <20%
VDWKKIGQHILSVL-NH2 [Mastoparan-J] | 37.3 ± 5.13 µM | – | –
